Assay results reported in US20060189539A1, “Novel GnRH analogues with antitumour effects and pharmaceutical compositions thereof” (priority 1994, published 2006).
Non-standard residues stand in square brackets, D forms with d. Residues, ends and D or L forms follow the SMILES beside them. Groups on a side chain read outwards from the residue. *: point of attachment. dPhe(4-Cl) = N[C@H](Cc1ccc(Cl)cc1)C(=O)O; NEt2 = CCN(CC)*

How the values were obtained:
[1] = tested on: MCF-7 human mammary carcinoma cell line; assay: Inhibition of colony formation (dose-survival), Example 48; assay type: cell-based; settings: 50 μM
Text: MCF-7 human mammary carcinoma cell line was stabilized in 1973 by Soule et al. from the pleural fluid of a patient suffering from mammary carcinoma. MDA-MB-231 human mammary carcinoma cell line was isolated and stabilized by Cailleau et al. in 1974 similarly from pleural fluid. Both cell lines grow in monolayer. […] MCF-7 cell line is estradiol receptor (ER)-positive containing proteins specifically binding GnRH. Thus, it represents, a useful model system for investigating the direct effect of GnRH mediated by the GnRH receptor. Being ER-negative and GnRH receptor-positive, MDA-MB-231 cell line is similarly suitable to study the direct effect of GnRH. PC3 human prostate carcinoma cell line was stabilized in cell culture by Kaighn et al. in 1979. The cells are of epithelial type and form compact colonies in clonogenic assays. The Ishikawa cell line originates from human endometrial adenocarcinoma [M. Nishida et al.: Acta Obstet. Gynecol. Jpn. 37, 1103-1111 (1985)], it is epithelial in its character and contains steroid-as well as GnRH receptors. The examination gives accurate information about the cell-damaging effect of the substance tested as a function of varying doses. The treatment was carried out once; the colonies formed from the surviving cells were counted after 8-12 days. […] A part of the arrested cells again entered the cycle, an other part of them might be destroyed (apoptosis). […] The treatment was once carried out 24 hours after setting, then the colonies formed were counted after 8-12 days. The cells were treated once after 24 hours with 1-50 μM of various GnRH analogues of Examples above or with 1-50 μM of GnRH-III, respectively. The percentages of inhibition obtained on MCF-7, MDA-MB-231, PC3 and Ishikawa cells, respectively, together with the dose of the active agent used are shown in Table VIII.

[2] = tested on: Ishikawa human endometrium carcinoma cell line; assay: Inhibition of colony formation (dose-survival), Example 18; assay type: cell-based; settings: 50 μM
Text: (§1) Human cell lines used in in vitro experiments. MCF-7 human mammary tumour cell line was stabilized in 1973 by Soule et al. from the pleural fluid of mammary carcinoma patients. The cells grow in monolayer and are epithelial in their character. MDA-MB-231 human mammary carcinoma cell line was isolated and stabilized in 1974 by Cailleau et al. similarly from pleural fluid. These cells also grow in monolayer. PC3 human prostate carcinoma cell line was stabilized 20 in 1979 in cell culture by Kaighn et al.; the cells are of simple epithelium type and form compact colonies in clonogenic assays. Ishikawa cell line originated from adenocarcinoma of human endometrium [Nishida et al.: Obstet. Gynecol. Jpn, 37, 25 1103-1111 (1985)], has epithelial character and contains steroid as well as GnRH receptors. Human tumour cell lines are maintained in plastic flasks (Greiner) in Dulbecco-6modified Eagle-MEM (DMEM GIBCO) nutritive medium. The medium used herein contained 10% of fetal calf serum (FCS).
(§2) In the case of cytostatics the cell-damaging effect is not cell-specific. […] One part of the arrested cells again go into the cycle, the other part may perish (apoptosis). […] The investigations were carried out on MCF-7 and MDA-MB-231 human mammary carcinoma cell lines, PC3 human prostate 15 carcinoma cell line and Ishikawa human endometrium carcinoma cell line. Threehundred cells were set into Petri dishes of 3.5 cm in diameter each. The treatment was carried out once, 24 hours following the explantation, then the colonies formed were counted after 9 to 12 days.

[3] = tested on: PC3 human prostate carcinoma cell line; assay: as above; assay type: cell-based
Text: as §1, §2

[4] = tested on: PC3 human prostate carcinoma cells; assay: In vitro inhibition of cell proliferation (cell count), Example 19; assay type: cell-based; settings: 30 μM of active substance, conjugate, treated once
Experimental: The procedure of treatment was as follows. After trypsinization the cells, 400,000 cells of MCF-7, MDA-MB-231 human mammary carcinoma, PC3 human prostate carcinoma or Ishikawa human endometrium tumour each were passed into Petri dishes of 10 cm in diameter. Starting from the day following transfer, the cells were treated with the substances to be tested in solution prepared with the nutrient medium during the exponential growth phase. […]

[5] = tested on: Ishikawa human endometrium tumour cells; settings: 30 μM of active substance, conjugate, treated once
Text: The procedure of treatment was as follows. After trypsinization the cells, 400,000 cells of MCF-7, MDA-MB-231 human mammary carcinoma, PC3 human prostate carcinoma or Ishikawa human endometrium tumour each were passed into Petri dishes of 10 cm in diameter. […]

[6] = tested on: MDA-MB-231 human mammary carcinoma cell line; assay: Inhibition of colony formation (dose-survival), Example 48; assay type: cell-based
Text: (§3) MCF-7 human mammary carcinoma cell line was stabilized in 1973 by Soule et al. from the pleural fluid of a patient suffering from mammary carcinoma. MDA-MB-231 human mammary carcinoma cell line was isolated and stabilized by Cailleau et al. in 1974 similarly from pleural fluid. Both cell lines grow in monolayer. MCF-7 and MDA-MB-231 human mammary carcinoma cell lines are maintained in plastic flasks (Greiner), in Dulbecco-modified Eagle-MEM (DMEM, GIBCO) liquid nutrient medium containing 10% of fetal calf serum. MCF-7 cell line is estradiol receptor (ER)-positive containing proteins specifically binding GnRH. Thus, it represents, a useful model system for investigating the direct effect of GnRH mediated by the GnRH receptor. Being ER-negative and GnRH receptor-positive, MDA-MB-231 cell line is similarly suitable to study the direct effect of GnRH. PC3 human prostate carcinoma cell line was stabilized in cell culture by Kaighn et al. in 1979. The cells are of epithelial type and form compact colonies in clonogenic assays. The Ishikawa cell line originates from human endometrial adenocarcinoma [M. Nishida et al.: Acta Obstet. Gynecol. Jpn. 37, 1103-1111 (1985)], it is epithelial in its character and contains steroid-as well as GnRH receptors.
(§4) The examination gives accurate information about the cell-damaging effect of the substance tested as a function of varying doses. The treatment was carried out once; the colonies formed from the surviving cells were counted after 8-12 days. […] A part of the arrested cells again entered the cycle, an other part of them might be destroyed (apoptosis). […] In the case of a dose-response investigation, colonies containing less than 15 cells were not counted. 300 cells were put into each Petri dishes of 3.5 cm in diameter. The treatment was once carried out 24 hours after setting, then the colonies formed were counted after 8-12 days. The cells were treated once after 24 hours with 1-50 μM of various GnRH analogues of Examples above or with 1-50 μM of GnRH-III, respectively. The percentages of inhibition obtained on MCF-7, MDA-MB-231, PC3 and Ishikawa cells, respectively, together with the dose of the active agent used are shown in Table VIII.

human tumor cell lines = assay: Colony formation, Example 48, comparison with control D-Trp6-hGnRH; assay type: cell-based; settings: data of Table VIII
Experimental: as §4
In these studies the D-Trp6-hGnRH analogue (Sigma Co.) commonly used in the tumour therapy was employed as control.

[7] = tested on: MDA-MB-231 human mammary carcinoma cell line; assay: Inhibition of colony formation (dose-survival), Example 18; assay type: cell-based; settings: 50 μM
Text: as §1, §2

[8] = tested on: MCF-7 human mammary carcinoma cell line; assay: as above; assay type: cell-based; settings: 50 μM
Text: as §1, §2

[9] = tested on: PC3 prostate tumour cell culture; assay: Inhibition of colony formation (dose-survival), Example 48; assay type: cell-based, human
Text: as §3, §4

[10] = tested on: Ishikawa endometrium tumour cell culture; assay: as above; assay type: cell-based, human; settings: 50 μM
Text: as §3, §4

B-lymphocytes = assay: Humoral immune response (antibody production of B-lymphocytes); assay type: in vivo, mice; settings: for Increase of the humoral immune response: mice
T-lymphocytes = assay: Cellular immune response (rosette formation against BRBC antigen); assay type: in vivo, mice
Text: The immunosuppressive side effect of cytostatics used in tumour therapy is commonly known. This effect can be compensated to a certain grade by various immunostimulants (endotoxin, levamisole). Polypeptides with much […] molecular weights (about 40,000 to 80,000) are also capable of protecting against immunosuppressive effect [Gal et al.: J. Biol. Resp. Modif. 5, 148-159 (1986)). The molecular weight of the novel polyanionic P-GFLG-OH macromolecule tested by us is about 10,000, that of MI-1892 is about 2000, i.e. relatively low; therefore, their immunostimulatory activity was unexpected.

MCF-7 xenograft = assay: In vivo antitumour effect on MCF-7 xenograft; parameters: species or system immunosuppressed CBA/Ca mice; settings: 2 × 25 μg
Experimental: The immunosuppression of mice was carried out by using the method of Steel et al. (1978).
CBA/Ca female mice of about 6 weeks old were thymectomized and then, after one week, they were irradiated with 60Co (whole body irradiation; the lethal dose is 9.5 Gray). Within 24 hours 3 to 5×10^5 myelocytes were injected to the animals. Beneath the skin of the immunosuppressed mice 2×10^7 tumour cells or, in the case of later passages, about 2 mm^3 of tumour cells or in the case of later, additional passages about 2 mm^3 of tumour pieces were implanted. […] The treatment with steroid hormone was stopped by at least one week before beginning the investigation.
In the case of MCF-7 tumours (xenografts) the examinations were carried out with passages being in the phase of the 37th and 38th, respectively, transplantations.
In the case of mice bearing MCF-7 xenograft, the treatment was begun in the 4th week following xeno-transplantation.
Recent investigations have begun on 28 animals bearing MCF-7 xenograft .and on 28 animals bearing MDA-MB-231 xenograft. On animals bearing MCF-7 tumour the treatment was commenced in the 5th week following xeno-transplantation; the tumour volume was 205 to 225 mm^3. On animals bearing MDA-MB-231 tumour, the treatment was started in the 4th week after xeno-transplantation with a tumour volume of 140 to 150 mm^3. […] The control groups were daily treated with physiological saline s.c. (Each treated group consisted of 7 animals.)

D-Phe2,D-Trp3,{D-Lys[n-poly(N-vinylpyrrolidone-co-maleic acid)-Gly-Phe-Leu-Gly-]}6.-GNRH [P-GFLG-1004]
% Inhibition of colony formation [1]: 44%
% Inhibition of colony formation [2]: 46%
% Inhibition of colony formation ([3]; 30 μM): 100%
% Inhibition of cell division [4]: 35%
% Inhibition of cell division [5]: 20%

NCCCC[C@H](NC(=O)[C@H](Cc1c[nH]c2ccccc12)NC(=O)[C@H](Cc1c[nH]cn1)NC(=O)[C@@H]1CCC(=O)N1)C(=O)N[C@@H](Cc1c[nH]cn1)C(=O)N[C@@H](CC(=O)O)C(=O)N[C@@H](Cc1c[nH]c2ccccc12)C(=O)N[C@@H](CCCCN)C(=O)N1CCC[C@H]1C(=O)NCC(N)=O [Compound 6, Lys^4-GnRH-III]
% Inhibition of colony formation [1]: 40%
% Inhibition of colony formation ([6]; 10 μM): 18%
% Inhibition of colony formation ([6]; 50 μM): 35%
Inhibitory effect on colony formation compared with control D-Trp6-hGnRH (human tumor cell lines): exceeded the inhibitory effect of control
% Inhibition of colony formation [7]: 35%
% Inhibition of colony formation [2]: 21%
% Inhibition of colony formation [8]: 40%
% Inhibition of colony formation ([3]; 50 μM): did not show any inhibition
% Inhibition of colony formation ([9]; 50 μM): 0%
Effect on colony-forming ability ([9]; within the dose range used (1-50 μM)): did not influence
% Inhibition of colony formation [10]: 21%

{Lys[n-poly(N-vinylpyrrolidone-co-maleic acid)-Gly-Phe-Leu-Gly-]}4,-GnRH-III [P-GFLG-Lys4-GnRH-III]
% Inhibition of colony formation [7]: 75%
% Inhibition of colony formation [2]: 25%
% Inhibition of colony formation [8]: 68%
% Inhibition of colony formation ([3]; 30 μM): 94%

CCN(CC)C(=O)[C@H](CC(=O)N[C@@H](CC(C)C)C(=O)N[C@@H](CCC(N)=O)C(=O)N1CCC[C@H]1C(=O)N[C@H](C)C(N)=O)NC(=O)[C@H](CCCCN)NC(=O)[C@H](CO)NC(=O)[C@@H](Cc1c[nH]c2ccccc12)NC(=O)[C@@H](Cc1ccc(Cl)cc1)NC(=O)[C@@H](Cc1c[nH]c2ccccc12)NC(C)=O [MI-1892, Ac-D-Trp^1,3,D-Cpa^2,Lys^5,[β-Asp(DEA)]^6,D-Ala^10-hGnRH, reference compound] (Ac-[dW][dPhe(4-Cl)][dW]SKD([Leu-Gln-Pro-dA-NH2])-NEt2)
Effect on the humoral immune response (B-lymphocytes; dose not stated): strengthened
Increase of the humoral immune response (B-lymphocytes; 50 μg/mouse): more than twofold
Increase of the humoral immune response (B-lymphocytes; 100 μg/mouse): threefold
Increase of the cellular immune response (T-lymphocytes; 100 μg/mouse): nearly twofold
Effect on the cellular immune response (activity of T-lymphocytes against BRBC antigen) (T-lymphocytes; dose not stated): increased
Inhibition % (MCF-7 xenograft; week 4): 22.5%
Inhibition % (MCF-7 xenograft; week 6): 21%
